Experimental data from patent US20140113964A1, “METHOD OF PREVENTING AND TREATING ALLERGIC AIRWAY DISEASES VIA INTRANASAL GABEXATE MESILATE” (priority 2012, published 2014).
Where a SMILES comes first, the peptide text is derived from it. [ ]: non-standard residue; d: D form. The star is where a group is joined. Sta = CC(C)C[C@H](N)[C@@H](O)CC(=O)O; Isovaleryl = CC(C)CC(=O)*

What was measured:
[1] = tested on: protease activity of CraA; assay: azocasein assay of the protease activity of CraA with protease inhibitors; format: biochemical, American cockroach; details: azocasein substrate, 37° C., 30 mins, absorbance at 440 nm; FIG. 1
Procedure: In brief, azocasein was used as a substrate to measure the protease activity of CraA. Twenty μL of CraA was added into 80 μL azocasein solution (0.5% (w/v), lysed in 100 mM phosphate buffer) and incubated in 37° C. water bath for 30 mins. Afterwards, 20 μL of 10% trichloroacetic acid was added to stop the reaction. Further, the mixture was centrifuged with 6000 g for 10 mins. Consequently, 50 μL of supernatant was mixed with 50 μL of NaOH (0.2N), and the absorbance was measure at 440 nm. Moreover, various protease inhibitors were applied to inhibit the protease activity of CraA, for instance, PMSF (serine protease), aprotinin (serine protease), pepstatin (aspartic acid protease), E-64 (cysteine protease) and EDTA (metalloprotease), so as to confirm the serine protease activity of CraA.
With reference to FIG. 1 for a schematic view of inhibition of protease activity of CraA in accordance with an embodiment of the present invention, the protease activity inhibition was shown after treatment of different kinds of […].

[2] = tested on: IL-8 and MCP-1 proteins; assay: IL-8 and MCP-1 protein levels in Beas2B cells treated with CraA; format: cell-based, Human; details: pre-treatment 30 mins, then 5 μg/mL CraA, time courses; FIG. 8
Procedure: With reference to FIGS. 6-8 for a schematic view of protection effects of gabexate mesilate (GM) on Beas2B cells treated with CraA, a schematic view of chemokines detected by RT-PCR in Beas2B cells treated with CraA and gabexate mesilate and a quantification result of IL-8 and MCP-1 proteins in Beas2B cells treated with CraA and gabexate mesilate in accordance with an embodiment of the present invention, 3×10^5 Beas2B cells were seeded in a 6-well plate and subsequently treated with gabexate mesilate for 30 mins. Afterwards, the cells were further treated with 5 μg/mL of CraA. Consequently, the cells were either observed by bright field microscope and analyzed the gene expression and the protein level of the cytokines, such as IL-8, MCP-1, GM-CSF and CCL20, as mentioned above.

[3] = tested on: Beas2B cells; assay: CraA-induced dissociation of Beas2B cells, bright field microscope; format: cell-based, Human; details: 36, 75, 150 or 300 μg/mL gabexate mesilate for 30 mins, then 5 μg/mL CraA; FIG. 6
Procedure: With reference to FIG. 2 is a schematic view of Beas2B cells treated with various doses of CraA in accordance with an embodiment of the present invention, 3×10^5 Beas2B cells were seeded in a 6-well plate and treated with 0, 5, 10, 20, 30 and 40 μg/mL of CraA, respectively. Afterwards, the cells were observed by the bright field microscope.

[4] = tested on: Beas2B cells; assay: cell viability of Beas2B cells, trypan blue staining and counting; format: cell-based, Human
Procedure: With reference to FIG. 5 for a schematic view of cell viability of Beas2B cells treated with gabexate mesilate (GM) in accordance with an embodiment of the present invention, 3×10^5 Beas2B cells were seeded in a 3.5-cm dish with subsequently starvation for 16 hrs. After treating the cells with gabexate mesilate of various concentrations for 24 hrs, the cells were stained with trypan blue and counted the numbers of total cells, dead cells and survived cells so as to convert the numbers into a viability of the cells.
Referring to FIG. 5, the IC50 of the cells to gabexate mesilate is 600 μg/mL, that is, the cell viability with respect to gabexate mesilate at concentration of 600 μg/mL is 50%. […] Accordingly, the pharmaceutical effective amount of the composition comprising gabexate mesilate may be between 1-600 μg/mL, preferably between 10-300 μg/mL.

[5] = tested on: IL-8, MCP-1, GM-CSF and CCL20 genes; assay: RT-PCR of chemokine genes (IL-8, MCP-1, GM-CSF, CCL20) in Beas2B cells treated with CraA; format: cell-based, Human; details: pre-treatment 30 mins, then 5 μg/mL CraA, increasing doses; FIG. 7
Procedure: Referring to FIG. 4, the mRNA levels of various cytokines in response to treatment of CraA was measured by RT-PCR. To be brief, 3×10^5 Beas2B cells were seeded in a 6-well plate and treated with 5 μg/mL of CraA for 1, 2, 3, 4, 5, 16 and 24 hrs, respectively. After the treatment, the cells were harvested by TRIzol (Invitrogen), and RNA of the cells was extracted. The extracted RNA was reverse-transcribed into cDNA by SuperScript polymerase (Invitrogen) according to the manufacturer's instruction. Moreover, IL-8, MCP-1, GM-CSF and CCL20 genes were amplified by RT-PCR and analyzed by 2% agarose gel. The expression levels of the above mentioned genes were normalized with the expression of β-actin.

[6] = tested on: murine asthma model; details: intra-peritoneal injection; cited from earlier work

Compound: CC(C)CC(=O)N[C@H](C(=O)N[C@H](C(=O)N[C@@H](CC(C)C)[C@@H](O)CC(=O)N[C@@H](C)C(=O)N[C@@H](CC(C)C)[C@@H](O)CC(=O)O)C(C)C)C(C)C [pepstatin] (Isovaleryl-VV[Sta]A[Sta]-OH)
- inhibition of the protease activity of CraA [1]: not significantly inhibited

Compound: aprotinin
- inhibition of the protease activity of CraA [1]: obviously inhibited

Compound: CC(C)C[C@H](NC(=O)[C@H]1O[C@@H]1C(=O)O)C(=O)NCCCCN=C(N)N [E-64]
- inhibition of the protease activity of CraA [1]: not significantly inhibited

Compound: CCOC(=O)c1ccc(OC(=O)CCCCCN=C(N)N)cc1.CS(=O)(=O)O [gabexate mesilate]
- protein levels of IL-8 and MCP-1 [2]: significantly decreased
- dissociation of Beas2B cells treated with CraA [3]: reverse the dissociation of the cells
- survived cells ([4]; 1200 μg/mL, 24 hrs): no survived cells
- IC50 of the cells to gabexate mesilate (cell viability) ([4]; Beas2B cells, 24 hrs treatment, trypan blue, FIG. 5): 600 µg/mL
- expression of IL-8, MCP-1, GM-CSF and CCL20 genes induced by CraA [5]: obviously decreases the gene expression induced by CraA
- allergen-induced airway inflammation and eosinophilia [6]: attenuates allergen-induced airway inflammation and eosinophilia

Compound: O=C(O)CN(CCN(CC(=O)O)CC(=O)O)CC(=O)O [EDTA]
- inhibition of the protease activity of CraA [1]: not significantly inhibited

Compound: O=S(=O)(F)Cc1ccccc1 [PMSF]
- inhibition of the protease activity of CraA [1]: obviously inhibited
